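48-hour exposure; five concentrations; linearly interpolated endpoints. GI50: concentration for 50% inhibition of growth. TGI is the concentration that stops growth completely.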
Experiments:
Assay in all cases: NCI-60 cell line screen, 48 h
[1] = tested on: SK-OV-3 ovarian
[2] = tested on: HOP-62 NSCLC
[3] = tested on: K-562 leukemia
[4] = tested on: OVCAR-8 ovarian
[5] = tested on: HL-60(TB) leukemia
[6] = tested on: CCRF-CEM leukemia
[7] = tested on: HOP-92 NSCLC
[8] = tested on: MDA-N
[9] = tested on: SNB-19 CNS
[10] = tested on: DU-145 prostate

O=C(OCc1ccccc1C1CSCSC1)c1cc(C(=O)OCc2ccccc2C2CSCSC2)c(C(=O)OCc2ccccc2C2CSCSC2)cc1C(=O)OCc1ccccc1C1CSCSC1
TGI [1]: > 100 µM
TGI [2]: > 100 µM
TGI [3]: > 100 µM
TGI [4]: > 100 µM
TGI [5]: > 100 µM
TGI [6]: > 100 µM
TGI [7]: > 100 µM

CCCCCCCCCCCCCCCCOCC(Cl)COP(=O)(O)OP(=O)(O)OCC1OC(n2cnc3c(N)ncnc32)C(O)C1O (stereo unspecified)
TGI [1]: > 100 µM
TGI [2]: > 100 µM
TGI [3]: > 100 µM
TGI [4]: > 100 µM
TGI [5]: > 100 µM
TGI [6]: > 100 µM
TGI [8]: > 100 µM
TGI [7]: > 100 µM
TGI [9]: > 100 µM

C=C1CC(Cn2cc(Br)c(=O)[nH]c2=O)(c2ccc(-c3ccccc3)cc2)OC1=O (stereo unspecified)
TGI [10]: 4.59 µM
TGI [1]: 15.9 µM
TGI [2]: 19.3 µM
TGI [3]: > 100 µM
TGI [4]: 4.29 µM
TGI [6]: 0.712 µM
TGI [8]: 2.35 µM
TGI [7]: 0.113 µM
TGI [9]: 26.8 µM

Cc1cc2n([O-])cccc-2[n+](=O)c1
TGI [1]: > 100 µM
TGI [2]: > 100 µM
TGI [3]: > 100 µM
TGI [4]: > 100 µM
TGI [5]: > 100 µM
TGI [6]: > 100 µM
TGI [7]: > 100 µM
TGI [9]: > 100 µM

NS(=O)(=O)c1cc(S(N)(=O)=O)c(NC(=O)N(c2ccccc2)c2ccccc2)c(Cl)c1Cl
TGI [1]: 65.3 µM
TGI [3]: 81.4 µM
TGI [4]: 34.2 µM
TGI [5]: 52 µM
TGI [6]: 25.7 µM
TGI [8]: 88.5 µM
TGI [7]: 27 µM
TGI [9]: > 100 µM

c1ccc([P+](c2ccccc2)(c2ccccc2)c2ccc([P+](c3ccccc3)(c3ccccc3)c3ccccc3)cc2)cc1
TGI [10]: > 100 µM
TGI [1]: > 100 µM
TGI [2]: > 100 µM
TGI [3]: > 100 µM
TGI [4]: > 100 µM
TGI [5]: > 100 µM
TGI [6]: > 100 µM
TGI [8]: > 100 µM
TGI [9]: > 100 µM

COc1ccc(/C=C2\CCC(CNc3ccc(Br)cc3)C2=O)cc1 (stereo unspecified)
TGI [10]: > 100 µM
TGI [1]: > 100 µM
TGI [2]: > 100 µM
TGI [3]: > 100 µM
TGI [4]: > 100 µM
TGI [5]: > 100 µM
TGI [6]: > 100 µM
TGI [7]: > 100 µM
TGI [9]: > 100 µM

COC(=O)/C=C/c1ccc2c(c1)CC1(Cc3ccccc3C1)C2
TGI [1]: > 100 µM
TGI [2]: > 100 µM
TGI [3]: > 100 µM
TGI [4]: > 100 µM
TGI [5]: 67.3 µM
TGI [6]: 57.3 µM
TGI [8]: > 100 µM
TGI [7]: > 100 µM

Nc1ncc(/C=N/O)c(NCC2(CO)CC(CCc3ccccc3)C2)n1 (stereo unspecified)
TGI [10]: 28.8 µM
TGI [2]: 24.8 µM
TGI [3]: 31.7 µM
TGI [4]: 24.1 µM
TGI [5]: 28 µM
TGI [6]: 50.2 µM
TGI [7]: 30.2 µM

CC(=O)CC1(C)OC(N)=C(C#N)C1(C#N)C#N (stereo unspecified)
TGI [10]: > 100 µM
TGI [1]: > 100 µM
TGI [2]: > 100 µM
TGI [4]: > 100 µM
TGI [6]: > 100 µM
TGI [8]: > 100 µM
TGI [7]: > 100 µM
TGI [9]: > 100 µM

COC(=O)C(C(=O)C(=O)NC1Nc2ccc(C)cc2S1)c1nc2ccc(Cl)cc2[nH]c1=O (stereo unspecified)
TGI [1]: > 100 µM
TGI [2]: > 100 µM
TGI [3]: > 100 µM
TGI [4]: > 100 µM
TGI [5]: > 100 µM
TGI [8]: > 100 µM
TGI [7]: > 100 µM
TGI [9]: > 100 µM

CCN(CC)CCCCC1CCN(CC(=O)N2c3ccccc3NC(=O)CC2C)CC1 (stereo unspecified)
TGI [1]: > 100 µM
TGI [2]: > 100 µM
TGI [3]: > 100 µM
TGI [4]: > 100 µM
TGI [5]: > 100 µM
TGI [6]: > 100 µM
TGI [7]: > 100 µM
TGI [9]: > 100 µM

O=S(=O)(O)C1CCC(O)C2[N-]CCCC21.O=S(=O)(O)C1CCC(O)C2[N-]CCCC21.[Zn+2] (stereo unspecified)
TGI [10]: > 100 µM
TGI [1]: > 100 µM
TGI [2]: > 100 µM
TGI [3]: > 100 µM
TGI [4]: > 100 µM
TGI [5]: 51 µM
TGI [7]: > 100 µM
TGI [9]: > 100 µM

COC(=O)c1c(OC)cc2cc3c(c(O)c2c1C)C(=O)C1(O)C(=O)C=C(OC)C(OC(=O)CC(C)N)=C1C3=O (stereo unspecified)
TGI [10]: > 100 µM
TGI [2]: > 100 µM
TGI [4]: 92.9 µM
TGI [5]: 50.8 µM
TGI [6]: 49.5 µM
TGI [8]: > 100 µM
TGI [7]: > 100 µM
TGI [9]: > 100 µM

Cc1cc([N+](=O)[O-])c(S(=O)(=O)c2ccccc2)c([N+](=O)[O-])c1
TGI [1]: 74.7 µM
TGI [2]: 40 µM
TGI [3]: > 100 µM
TGI [4]: > 62.5 µM
TGI [5]: 10.7 µM
TGI [6]: > 28 µM
TGI [7]: 5.28 µM
TGI [9]: 32.9 µM

CC(c1ccccc1)N1CC(C)(c2ccccc2)N(O)C(c2ccccc2)C1C (stereo unspecified)
TGI [1]: 87.8 µM
TGI [2]: 38.9 µM
TGI [3]: > 100 µM
TGI [4]: > 100 µM
TGI [5]: 13.5 µM
TGI [6]: 31 µM
TGI [7]: 8.36 µM
TGI [9]: > 100 µM

CCCCCCOc1ccc(C(=N)N(CCCC)CCCC)c2ccccc12
GI50 [10]: 1.49 µM
TGI [10]: 2.86 µM
GI50 [1]: 1.57 µM
TGI [1]: 2.96 µM
GI50 [2]: 1.7 µM
TGI [2]: 3.34 µM
GI50 [5]: 1.81 µM
TGI [5]: 3.43 µM
GI50 [7]: 1.07 µM
TGI [7]: 2.6 µM

CC(C)(C)c1ccc(-c2nnc(-c3cc(C#N)cc(-c4nnc(-c5ccc(C(C)(C)C)cc5)o4)c3)o2)cc1
TGI [10]: > 100 µM
TGI [1]: > 100 µM
TGI [2]: > 100 µM
TGI [3]: > 100 µM
TGI [4]: > 100 µM
TGI [6]: > 100 µM
TGI [8]: > 100 µM
TGI [7]: > 100 µM
TGI [9]: > 100 µM

O=C1CSC2(CC(/C=C/c3ccccc3Br)=NN2c2cccc(S(=O)(=O)O)c2)N1c1nc2ccccc2s1 (stereo unspecified)
TGI [10]: > 100 µM
TGI [3]: > 100 µM
TGI [4]: > 100 µM
TGI [5]: > 100 µM
TGI [6]: > 100 µM
TGI [8]: > 100 µM
TGI [7]: > 100 µM
TGI [9]: > 100 µM

N#CCCC1(CCC#N)CCCCCCC(CCC#N)(CCC#N)C(O)C1O (stereo unspecified)
TGI [10]: > 100 µM
TGI [1]: > 100 µM
TGI [2]: > 100 µM
TGI [3]: > 100 µM
TGI [4]: > 100 µM
TGI [8]: > 100 µM
TGI [7]: > 100 µM
TGI [9]: > 100 µM

CCN(CC)CCN(C)CCc1ccc(Br)cc1
TGI [10]: > 100 µM
TGI [1]: > 100 µM
TGI [2]: > 100 µM
TGI [3]: > 100 µM
TGI [4]: > 100 µM
TGI [6]: > 100 µM
TGI [8]: > 100 µM
TGI [7]: > 100 µM
TGI [9]: > 100 µM

CC1(C)COC(c2c(-c3ccccc3)noc2CS(=O)c2ccccc2)=N1 (stereo unspecified)
TGI [1]: > 100 µM
TGI [2]: > 100 µM
TGI [3]: > 100 µM
TGI [4]: > 100 µM
TGI [5]: 84.6 µM
TGI [6]: > 100 µM
TGI [9]: > 100 µM

From PubChem BioAssay (NCI)
